Measurements as given in US6235739A, “5-phenyl-3-pyridazinone derivatives and drug composition containing the same” (Nikken Chemicals Co., Ltd., priority 1996, dated 2001).

How the values were obtained:
Type IV PDE = assay: Measurement of type IV PDE inhibiting activity; type: biochemical; conditions: type IV PDE partially purified from neutrophils; 3H-cAMP substrate; 30 minutes; read-out: Type IV PDE Inhibitory activity IC50
Method: Type I, III, IV, and V PDE isozymes were prepared to study the PDE inhibiting activities and selectivities of the compound of the invention [Trends Pharmacol Sci., 12, 19-27 (1992)]. Type I PDE was purchased from Sigma Corp. Type III and V PDE isozymes were partially purified from rats platelets, and type IV PDE isozyme was partially purified from neutrophils. Each enzyme source was homogenized in a buffer (pH 6.5) containing 20 mM bisTris, 2 mM EDTA, 0.1 mM PMSF (phenylmethylsulfonyl fluoride), 5 mM 2-mercaptoethanol, 0.01 mM pepstatin, and 0.01 mM leupeptin and was centrifuged at 30,000G for 30 minutes to obtain a supernatant, which was applied to a column (1.5×20 cm) packed with an ion-exchange resin (Q-sepharose First Flow, Pharmacia Corp.) and was eluted with sodium acetate gradient of 0 to 1M. Partially purified isozymes were identified by observing the effects of conventional inhibitor.
Each PDE isozyme and test compounds dissolved in DMSO (i.e., dimethyl sulfoxide) were added to 50 mM Tris-HCl buffer containing 5 mM magnesium chloride. ^3 H-cAMP (for type III and IV PDE) or ^3 H-cGMP (for type I and V PDE) were added as substrates and were reacted for 30 minutes. The reaction was terminated by placing the test tube in boiling water of 100° C. for 5 minutes. The nucleotides formed by PDE were broken down by 5'-nucleotidase to ^3 H-adenosine or 3H-guanosine. The unreacted substrate and reaction product were separated through a column packed with an ion-exchange resin (QAE sephadex). The eluted ^3 H-nucleoside was measured for its radioactivity by a liquid scintillation counter. The inhibiting activities of the compound of the present invention against types I, III and V are 1/10 or less than that against type IV.

[1] = tested on: antigen-induced bronchospasm; assay: Inhibitory effect on antigen-induced bronchospasm (anti-asthmatic action); type: in vivo; conditions: Cavia porcellus, iv; ovalbumin-sensitized Hartley male guinea pig; intravenously 10 minutes before 0.2 mg/kg OA i.v.; Konzett-Roessler method; read-out: Action for suppressing antigen-induced bronchospasms ED50
Method: A Hartley male guinea pig was sensitized by intramuscular administration of […] Ovalbumin (OA) on first day and fourth day, and used after 24th day. A trachial canula was introduced in the guinea pig anesthetized with pentobarbital and artificial ventilation was performed 25 to 29 days after the first sensitization. The overflow of the ventilation was measured by the Konzett-Roessler method, while 0.2 mg/kg OA were administered intravenously. The test compound was dissolved in polyethylene glycol 400 and intravenously administered 10 minutes before administration of the antigens.

rat neutrophils = assay: Inhibitory effects on activity of rat neutrophils (release of super oxide anions); type: cell-based; conditions: Neutrophil, stimulation with 0.3 μM calcium ionophore A23187, chemiluminescence, read-out: Action for suppressing release of super oxide anions from rat neutrophils IC50
Method: The release of super oxide anions was measured so as to study the inhibitory effects of the compound on inflammatory leukocytes, that is, neutrophils.
Blood sample was obtained from Wister rats anesthetized with ether. It was superposed on a blood cell separation solution (Polymorphoprep 1.113, made by Naicomet Co. (phonetic)) and the neutrophils were separated by centrifugation. The neutrophils were resuspended in a Hank's balanced salt solution at a concentration of 0.5×10^4 cell/ml. 0.1 mM of Lusigenin and the test substance dissolved in DMSO were added to 2 ml of the cell-suspension. The chemiluminescence generated by stimulation of 0.3 μM calcium ionophore A23187 was measured by a chemiluminescence reader so as to evaluate the release of super oxide anions.

| IC50 (Type IV PDE) [nM] | IC50 (rat neutrophils) [nM] | Compound | ED50 [1] [mg/kg] |
| --- | --- | --- | --- |
| 180 | 130 | COc1ccc(C2C=NN(Cc3ccccc3)C(=O)C2)cc1OC1CCCC1 (stereo not shown) [Compound No. 6, 2-benzyl-5-(3-cyclopentyloxy-4-methoxyphenyl)-2,3,4,5-tetrahydropyridazin-3-one] | 3.2 |
| 1600 |  | COc1ccc(C2C=NNC(=O)C2)cc1OCCc1ccccc1 (stereo not shown) [Compound No. 8, 5-(4-methoxy-3-phenethyloxyphenyl)-2,3,4,5-tetrahydropyridazin-3-one] | 4.2 |
| 2700 |  | COc1ccc(C2C=NN(C)C(=O)C2)cc1OCC1(C)CC1 (stereo not shown) [Compound No. 22, 5-[4-methoxy-3-[(1-methylcyclopropyl)methyloxy]phenyl]-2-methyl-2,3,4,5-tetrahydropyridazin-3-one] | 2.37 |
| 2700 |  | COc1ccc(C2C=NN(C)C(=O)C2)cc1OCCc1ccccc1 (stereo not shown) [Compound No. 19, 5-(4-methoxy-3-phenethyloxyphenyl) -2-methyl-2,3,4,5-tetrahydropyridazin-3-one] |  |
| 2500 |  | COc1ccc(C2CNNC(=O)C2)cc1OC1CCCC1 (stereo not shown) [Compound No. 4, 5-(3-cyclopentyloxy-4-methoxyphenyl)hexahydropyridazin-3-one] | 2.1 |
| 2300 |  | COc1ccc(C2C=NN(C)C(=O)C2)cc1OCC(C)C (stereo not shown) [Compound No. 20, 5-[4-methoxy-3-(2-methylpropoxy)phenyl]-2-methyl-2,3,4,5-tetrahydropyridazin-3-one] | 0.97 |
| 9300 | 14000 | COc1ccc(C2C=NNC(=O)C2)cc1OC (stereo not shown) [Compound No. 1, 5-(3,4-dimethoxyphenyl)-2,3,4,5-tetrahydropyridazin-3-one] |  |
| 19000 |  | COc1ccc(C2CC(=O)NN=C2c2ccccc2)cc1OC1CCCC1 (stereo not shown) [Compound No. 28, 5-(3-cyclopentyloxy-4-methoxyphenyl)-6-phenyl-2,3,4,5-tetrahydropyridazin-3-one] |  |
| 1100 |  | COc1ccc(C2C=NNC(=O)C2)cc1OCC(C)C (stereo not shown) [Compound No. 12, 5-[4-methoxy-3-(2-methylpropoxy)phenyl]-2,3,4,5-tetrahydropyridazin-3-one] | 1.05 |
| 4800 |  | COc1ccc(C2C=NNC(=O)C2)cc1OCC(C)(C)C (stereo not shown) [Compound No. 15, 5-[3-(2,2-dimethylpropoxy)-4-methoxyphenyl]-2,3,4,5-tetrahydropyridazin-3-one] |  |
| 670 | 430 | COc1ccc(C2C=NN(C)C(=O)C2)cc1OC1CCCC1 (stereo not shown) [Compound No. 5, 5-(3-cyclopentyloxy-4-methoxyphenyl)-2-methyl-2,3,4,5-tetrahydropyridazin-3-one] |  |
| 1400 |  | COc1ccc(C2C=NN(C)C(=O)C2)cc1OCC1(c2ccccc2)CC1 (stereo not shown) [Compound No. 26, 5-[4-methoxy-3-[(1-phenylcyclopropyl)methyloxy]phenyl]-2-methyl-2,3,4,5-tetrahydropyridazin-3-one] |  |
| 4600 |  | COc1ccc(C2C=NN(C)C(=O)C2)cc1OCC1CC1 (stereo not shown) [Compound No. 18, 5-(3-cyclopropylmethyloxy-4-methoxyphenyl) -2-methyl-2,3,4,5-tetrahydropyridazin-3-one] | 0.12 |
| 420 | 30 | COc1ccc(C2C=NNC(=O)C2)cc1OC1CCCC1 (stereo not shown) [Compound No. 3, 5-(3-cyclopentyloxy-4-methoxyphenyl)-2,3,4,5-tetrahydropyridazin-3-one] | 0.4 |
| 3900 |  | COc1ccc(C2C=NN(C)C(=O)C2)cc1OCC(C)(C)C (stereo not shown) [Compound No. 21, 5-[3-(2,2-dimethylpropoxy)-4-methoxyphenyl]-2-methyl-2,3,4,5-tetrahydropyridazin-3-one] |  |
| 330 |  | COc1ccc(C2C=NNC(=O)C2)cc1OCCCCCc1ccccc1 (stereo not shown) [Compound No. 16, 5-[4-methoxy-3-(5-phenylpentyloxy)phenyl]-2,3,4,5-tetrahydropyridazin-3-one] |  |
| 1200 |  | COc1ccc(C2C=NNC(=O)C2)cc1OCC1(C)CC1 (stereo not shown) [Compound No. 11, 5-[4-methoxy-3-[(1-methylcyclopropyl)methyloxy]phenyl]2,3,4,5-tetrahydropyridazin-3-one] | 0.82 |
| 4200 | 1700 | COc1ccc(C2C=NN(c3ccccc3)C(=O)C2)cc1OC (stereo not shown) [Compound No. 2, 5-(3,4-dimethoxyphenyl)-2-phenyl-2,3,4,5-tetrahydropyridazin-3-one] |  |
| 1600 |  | COc1ccc(C2C=NNC(=O)C2)cc1OCC1CC1 (stereo not shown) [Compound No. 10, 5-(3-cyclopropylmethyloxy-4-methoxyphenyl)-2,3,4,5-tetrahydropyridazin-3-one] | 0.074 |
| 8700 |  | COc1ccc(C2C=NNC(=O)C2)cc1OCc1ccccc1 (stereo not shown) [Compound No. 7, 5-(3-benzyloxy-4-methoxyphenyl)-2,3,4,5-tetrahydropyridazin-3-one] |  |
| 170 |  | COc1ccc(C2C=NNC(=O)C2)cc1OC1Cc2ccccc2C1 (stereo not shown) [Compound No. 9, 5-[3-(2-indanyloxy)-4-methoxyphenyl]-2,3,4,5-tetrahydropyridazin-3-one] |  |
| 750 |  | COc1ccc(C2C=NNC(=O)C2)cc1OCC1(c2ccccc2)CC1 (stereo not shown) [Compound No. 25, 5-[4-methoxy-3-[(1-phenylcyclopropyl)methyloxy]phenyl]-2,3,4,5-tetrahydropyridazin-3-one] |  |
| 630 |  | COc1ccc(C2C=NN(C)C(=O)C2)cc1OC1Cc2ccccc2C1 (stereo not shown) [Compound No. 17, 5-[3-(2-indanyloxy)-4-methoxyphenyl]-2-methyl-2,3,4,5-tetrahydropyridazin-3-one] |  |
| 18000 | 15000 | COc1ccc(C2CC(=O)NN=C2C)cc1OC (stereo not shown) [compound 27, 5-(3,4-dimethoxyphenyl)-6-methyl-2,3,4 5-tetrahydropyridazin-3-one] |  |

| Compound | IC50 (Type IV PDE) [nM] | IC50 (rat neutrophils) [nM] | ED50 [1] [mg/kg] |
| --- | --- | --- | --- |
| CCC(CC)COc1cc(C2C=NNC(=O)C2)ccc1OC (stereo not shown) [Compound No. 14, 5-[3-(2-ethylbutoxy)-4-methoxyphenyl]-2,3,4,5-tetrahydropyridazin-3-one] | 2300 |  |  |
| CCC(CC)COc1cc(C2C=NN(C)C(=O)C2)ccc1OC (stereo not shown) [Compound No. 24, 5-[4-methoxy-3-(2-ethylbutoxy)phenyl]-2-methyl-2,3,4,5-tetrahydropyridazin-3-one] | 340 |  |  |
| CCCCOc1cc(C2C=NN(C)C(=O)C2)ccc1OC (stereo not shown) [Compound No. 23, 5-(3-butoxy-4-methoxyphenyl)-2-methyl-2,3,4,5-tetrahydropyridazin-3-one] | 6300 |  | 0.53 |
| CCCCOc1cc(C2C=NNC(=O)C2)ccc1OC (stereo not shown) [Compound No. 13, 5-(3-butoxy-4-methoxyphenyl)-2,3,4,5-tetrahydropyridazin-3-one] | 3400 |  | 1.4 |
